Series [1] can be described thus: dynamic vapor sorption isotherm. It is filed as physicochemical. The settings on record: for reversibility of hygroscopicity: up to 60% R.H. at 25° C. The source says: B) Dynamic Vapor Sorption Isotherm of Modification A, Modification B and Amorphous Material: In the following tables 7 and 8, R.H. stands for Relative Humidity, Sorpt. for Sorption and Desorpt. for Desorption.

Series [2] is described as follows: equilibration in solvents, solid investigated by XRPD. It is filed as physicochemical. Set-up: key to XRPD after equilibration: +: change detected; −: no change detected; //: not carried out as substance too soluble. The settings on record: for change of the form: in cyclohexane or n-heptane; for XRPD after equilibration: 25 degree Celsius. Here is the method: Between 200 mg to 700 mg of drug substance are equilibrated with 0.5 to 1 ml of solvent for at least 24 h in a water bath at the determined temperature +/−0.1° C. After equilibration, the solutions are filtered. The solid part is investigated by XRPD (X-ray Powder Diffraction).

Series [3] can be described thus: amorphous material kept under organic solvent vapor, XRPD. The settings on record: room temperature, at least one week. Set-up: key: +: change detected; −: no change detected; //: not carried out as substance too soluble. The format is physicochemical. Here is the method: For example, about 100 mg of amorphous material are placed under organic solvent vapor for at least one week at room temperature. The solid material is investigated by XRPD (X-ray powder diffraction), and the following results are obtained: […]

Series [4] can be described thus: heat of dissolution in water. It is filed as physicochemical. The settings on record: about 100 mg in 100 ml of water, 25° C.; mean of three determinations. The protocol: About 100 mg of material is placed in a sealed glass ampoule. After equilibration at 25° C., the ampoule is broken in 100 ml of water.
A short description of series [5]: XRPD at various relative humidities. The format is physicochemical. The protocol: (§1) The aim is to evaluate the influence of the storage condition on the crystalline form of SPP100 hemifumarate For this purpose, two different experiments have been performed. The first one consists to submit SPP100 hemifumarate modification A to a nitrogen flow and to record at various time the corresponding XRPD pattern. During the second experiment the influence of relative humidity on the crystalline modification A is determined by XRPD measurement.

Series [6] can be described thus: XRPD during storage under nitrogen flow. It is filed as physicochemical. The protocol: as §1
Series [7] can be described thus: stability of solvate single crystals to air and humidity. The format is physicochemical. Here is the method: Characterisation: Structurally, solvate forms SC and SD are characterized by single crystal X-ray diffraction. The single crystals are grown using heptane as antisolvent. The isopropanol and the ethanol solvate of SPP100 hemifumarate can be grown as small needles from isopropanol, or ethanol solution respectively, by precipitation with heptane antisolvent. As there the data quality is better, only the ethanol solvate form obtained from ethanol/heptane (so called SD, corresponding to Form D mentioned in Example 9) is discussed in detail. But from the data the conclusion can be drawn that the isopropanol solvate (so called SC) is isostructural to the ethanol solvate (when heptane is used as antisolvent). The solvate SD stoichiometry consists of one SPP100 molecule, 1/2 fumarate group and 3 solvent molecules.
They consist of a distinct channel structure along the crystallographic b-axis which occupies about 25% of the whole crystal structure volume. […] Hydrogen bonds can be found between SPP100 (hydroxyl group and protonated amine group of SPP100) and the fumarate group and between SPP100 molecules (protonated amine group and oxygen). Another H-bond exists between ethanol and SPP100 (oxygen and amine group). Dominating propagation vector of the H-bonds is the crystallographic b-axis. […]

Series [8] deals with patients with NYHA class II-IV heart failure and LVEF <35%. The settings on record: in vivo; cited from earlier work.
In series [9] the test system is severely sodium-depleted marmoset monkeys. The settings on record: orally or intravenously; cited from earlier work.
The test system of series [10] is patients with mild to moderate hypertension. The settings on record: aliskiren 75 mg to 300 mg; 4 weeks duration; cited from earlier work.

Consider 6 compounds from patent publication US8119841B2 (Novartis AG, priority 2006, dated 2012).

For the compound `COCCCOc1cc(C[C@@H](C[C@H](N)[C@@H](O)C[C@H](C(=O)NCC(C)(C)C(N)=O)C(C)C)C(C)C)ccc1OC` [Amorphous, aliskiren hemifumarate], the hygroscopic behavior result in [1] was “strong hygroscopic behavior”. Besides, the reversibility of hygroscopicity result in [1] is on record as “reversible”. Moreover, the “change of the form” value in series [2] is on record as “No change”. Moreover, the “Modification obtained by XRPD” value was “+ Typ V” in series [3] (1-hexanol vapor); “+ Typ V” in [3] (2-propanol vapor); “+ Typ. IV” in [3] (Acetonitrile vapor); “Mainly amorphous” in series [3] (Dimethylformamide vapor); “Amorphous + Typ. V” in series [3] (Ethanol vapor); “+ amorphous + small amount of Typ. III” in series [3] (Ethyl acetate vapor). The “Modification obtained by XRPD” value in [3] (Methyl acetate vapor) is recorded as “+ Typ I”; in series [3] (TBME vapor), “−”; in series [3] (Tetrahydrofurane vapor) it was “+ Typ III”; in [3] (Toluene vapor), “−”; in series [3] (n-butanol vapor), “+ Typ. V”.
In the case of `COCCCOc1cc(C[C@@H](C[C@H](N)[C@@H](O)C[C@H](C(=O)NCC(C)(C)C(N)=O)C(C)C)C(C)C)ccc1OC` [Modification A, aliskiren hemifumarate], in [1], the hygroscopic behavior result is “strong hygroscopic behavior”. Further, in series [1] (R.H. 0 %), the “Sorpt. wt % 1st” value is on record as 0.00 wt %. In [1], the reversibility of hygroscopicity result is given as “reversible”. Further, the XRPD after equilibration entry in series [2] (Acetone) is listed as “+ chemical reaction”; in series [2] (Acetonitrile), “−”; in series [2] (Cyclohexane), “−”; in series [2] (DMAc), “+ Typ III”; in series [2] (Dioxane) it was “+ Typ III”; in [2] (Isopropanol), “+ Mod. B”. Moreover, the XRPD after equilibration entry in [2] (Methylethylketone) is “+ chemical reaction”; in [2] (Pentanol), “+ Typ V”; in series [2] (TBME), “+ amorphous + Typ II”; in [2] (Tetrahydrofurane), “+ Typ III”; in series [2] (Toluol), “+ amorphous”; in [2] (n-heptane) it was “−”. For the same compound, in [2], the “change of the form” value was “No change”. Further, in series [4], the “heat of dissolution, Mean” value is -7.55 kcal/mol. For the same compound, the XRPD entry in [5] (0 h, RH 0%*) is reported as “Mod A”; in series [5] (2.55 h, RH 10%), “Mod A”; in series [5] (5.01 h, RH 25%) it was “Mod A”; in series [5] (7.4 h, RH 35%), “Mod A”; in series [5] (9.8 h, RH 45%) it was “Mod A”; in series [5] (24.23 h, RH 45%), “Mod A”. The XRPD entry in series [5] (26.86 h, RH 60%) was “Mod A”; in [5] (32.51 h, RH 70%), “Mod A”; in series [5] (47.6 h, RH 70%), “Mod A”; in series [5] (143.9 h, RH 70%), “Mod A”; in series [6] (0.00 hour) it was “Mod A”; in series [6] (2.25 hour) it was “Mod A”. For the same compound, the XRPD entry in [6] (4.53 hour), in series [6] (7.80 hour), in series [6] (13.10 hour) and in [6] (14.75 hour) was “Mod A” in each case. Besides, the Change entry in [6] (0.00 hour), in series [6] (2.25 hour), in series [6] (4.53 hour), in [6] (7.80 hour), in series [6] (13.10 hour) and in [6] (14.75 hour) was “none” in each case.
Take `COCCCOc1cc(C[C@@H](C[C@H](N)[C@@H](O)C[C@H](C(=O)NCC(C)(C)C(N)=O)C(C)C)C(C)C)ccc1OC` [SC, aliskiren hemifumarate]: the “stability of the structure to air and humidity” value in series [7] was “very sensible to air and humidity and decompose rapidly”.
As to `COCCCOc1cc(C[C@@H](C[C@H](N)[C@@H](O)C[C@H](C(=O)NCC(C)(C)C(N)=O)C(C)C)C(C)C)ccc1OC` [aliskiren, 2(S),4(S),5(S),7(S)-N-(3-amino-2,2-dimethyl-3-oxopropyl)-2,7-di(1-methylethyl)4-hydroxy-5-amino-8-[4-methoxy-3-(3-methoxy-propoxy)phenyl]-octanamide], in series [8], the PRA entry was “inhibited” and the “angiotensin II levels” value is recorded as “Trends towards reduced”. For the same compound, in series [9], the mean arterial pressure result is “sustained reductions”; the “plasma concentrations of active and total renin” value is on record as “significant increases”; the plasma renin activity result is reported as “complete inhibition”. For the same compound, in [10], the blood pressure entry is on record as “Dose dependent decreases”.
Consider `COCCCOc1cc(C[C@@H](C[C@H](N)[C@@H](O)C[C@H](C(=O)NCC(C)(C)C(N)=O)C(C)C)C(C)C)ccc1OC` [Modification B, aliskiren hemifumarate], for which the hygroscopic behavior result in [1] is “strong hygroscopic behavior”. Also, the “hygroscopicity compared among the 3 modifications” value in [1] is reported as “least hygroscopic form”. Moreover, the “Desorpt wt % 2nd” value in series [1] (R.H. 0 %) came to 0.04 wt %; in series [1] (R.H. 10 %), 2.33 wt %; in series [1] (R.H. 20 %), 3.17 wt %; in [1] (R.H. 30 %), 3.76 wt %; in series [1] (R.H. 40 %) it was 4.47 wt %; in series [1] (R.H. 50 %) it was 5.65 wt %. In addition, in series [1] (R.H. 60 %), the “Desorpt wt % 2nd” value is on record as 7.68 wt %. The “Sorpt. wt % 1st” value in series [1] (R.H. 0 %) was found to be 0.00 wt %; in series [1] (R.H. 10 %), 0.94 wt %; in [1] (R.H. 20 %), 1.69 wt %; in series [1] (R.H. 30 %), 2.53 wt %; in series [1] (R.H. 40 %), 3.68 wt %; in series [1] (R.H. 50 %), 5.52 wt %. Also, in series [1] (R.H. 60 %), the “Sorpt. wt % 1st” value was 7.68 wt %. Besides, in series [1], the reversibility of hygroscopicity result is reported as “reversible”. The “change of the form” value in [2] was “No change”. Further, the “heat of dissolution, Mean” value in series [4] was -5.88 kcal/mol.
As for `CCOC(=O)[C@H](CCc1ccccc1)N[C@@H](C)C(=O)N1[C@H](C(=O)O)C[C@@H]2CCC[C@@H]21` [ramipril], in [8], the PRA entry is given as “increased”, the “angiotensin II levels” value is reported as “Trends towards reduced” and the “effects on hormonal parameters” value is reported as “No deleterious effects”.
